Assays:
Mu-type opioid receptor [1] = biological target: T1, Mu-type opioid receptor (Homo sapiens, UniProt P35372); test: Displacement of [3H]DAMGO from mu opioid receptor expressed in HEK293 cells relative to DAMGO; assay type: cell-based; parameters: concentration or dose not given beside the values
[2] = biological target: T2, Kappa-type opioid receptor (Homo sapiens, UniProt P41145); test: Displacement of [3H]diprenorphine from kappa opioid receptor expressed in HEK293 cells relative to salvinorin A; assay type: cell-based; parameters: concentration or dose not given beside the values
[3] = biological target: T3, Delta-type opioid receptor (Homo sapiens, UniProt P41143); test: Displacement of [3H]DADLE from delta opioid receptor expressed in HEK293 cells relative to DADLE; assay type: cell-based; parameters: concentration or dose not given beside the values
[4] = biological target: T2, Kappa-type opioid receptor; test: Displacement of [3H]U69593 from kappa opioid receptor expressed in HEK293 cells relative to salvinorin A; assay type: cell-based; parameters: concentration or dose not given beside the values
[5] = Selectivity ratio of Ki for mu opioid receptor to Ki for kappa opioid receptor
[6] = biological target: T2, Kappa-type opioid receptor; test: Agonist activity at kappa opioid receptor expressed in HEK293 cells by [35S]GTPgammaS binding assay relative to salvinorin A; assay type: functional, cell-based
[7] = biological target: T2, Kappa-type opioid receptor; test: Displacement of [3H]U69593 from kappa opioid receptor expressed in HEK293 cells; assay type: cell-based
[8] = biological target: T2, Kappa-type opioid receptor; test: Agonist activity at kappa opioid receptor expressed in HEK293 cells by [35S]GTPgammaS binding assay; assay type: functional, cell-based
[9] = biological target: T3, Delta-type opioid receptor; test: Displacement of [3H]DADLE from delta opioid receptor expressed in HEK293 cells; assay type: cell-based
Mu-type opioid receptor [10] = biological target: T1, Mu-type opioid receptor; test: Displacement of [3H]DAMGO from mu opioid receptor expressed in HEK293 cells; assay type: cell-based
[11] = Selectivity ratio of Ki for delta opioid receptor to Ki for kappa opioid receptor

T3 sequence (P41143 whole entry): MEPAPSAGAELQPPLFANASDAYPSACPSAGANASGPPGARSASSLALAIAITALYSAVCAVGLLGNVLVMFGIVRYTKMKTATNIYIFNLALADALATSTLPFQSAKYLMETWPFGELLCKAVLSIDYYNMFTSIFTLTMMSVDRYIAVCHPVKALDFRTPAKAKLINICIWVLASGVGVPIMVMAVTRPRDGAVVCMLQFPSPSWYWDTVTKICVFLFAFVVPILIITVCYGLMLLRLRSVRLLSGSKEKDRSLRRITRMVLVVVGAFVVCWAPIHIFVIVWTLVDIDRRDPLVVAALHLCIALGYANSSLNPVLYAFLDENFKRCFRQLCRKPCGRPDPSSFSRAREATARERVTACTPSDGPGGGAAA
T1 sequence (P35372 whole entry): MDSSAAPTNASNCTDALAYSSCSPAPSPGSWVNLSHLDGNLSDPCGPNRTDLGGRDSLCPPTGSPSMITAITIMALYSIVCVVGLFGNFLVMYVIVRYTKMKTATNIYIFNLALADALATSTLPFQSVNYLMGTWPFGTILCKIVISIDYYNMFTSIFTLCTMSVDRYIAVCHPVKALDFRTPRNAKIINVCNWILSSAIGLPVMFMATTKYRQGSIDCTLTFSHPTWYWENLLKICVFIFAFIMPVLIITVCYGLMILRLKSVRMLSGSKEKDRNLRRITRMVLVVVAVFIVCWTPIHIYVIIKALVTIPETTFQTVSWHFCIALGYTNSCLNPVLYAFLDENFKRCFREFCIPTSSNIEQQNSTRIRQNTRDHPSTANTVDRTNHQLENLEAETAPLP
T2 sequence (P41145 whole entry): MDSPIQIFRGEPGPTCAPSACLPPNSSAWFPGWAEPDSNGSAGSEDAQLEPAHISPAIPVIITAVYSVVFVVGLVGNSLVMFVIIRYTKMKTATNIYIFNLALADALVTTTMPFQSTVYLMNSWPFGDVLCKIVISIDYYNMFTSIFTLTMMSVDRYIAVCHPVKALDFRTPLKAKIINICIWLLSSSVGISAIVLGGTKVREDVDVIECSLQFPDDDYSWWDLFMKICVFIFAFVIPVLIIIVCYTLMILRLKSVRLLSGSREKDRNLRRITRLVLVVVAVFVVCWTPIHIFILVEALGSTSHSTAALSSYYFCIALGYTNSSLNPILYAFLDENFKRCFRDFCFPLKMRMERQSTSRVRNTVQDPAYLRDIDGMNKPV

With `COC(=O)[C@@H]1C[C@H](OC(=O)CN)C(=O)[C@H]2[C@@]1(C)CC[C@H]1C(=O)O[C@H](c3ccoc3)C[C@]21C` the Activity (Mu-type opioid receptor [1]) was -5%, the Activity [2] was 0% and the Activity [3] was 17%. For the same compound, the Activity [4] was 41%.
In the case of `COC(=O)[C@@H]1C[C@H](OC(=O)[C@H](C)NC(=O)OCC2c3ccccc3-c3ccccc32)C(=O)[C@H]2[C@@]1(C)CC[C@H]1C(=O)O[C@H](c3ccoc3)C[C@]21C`, the Activity (Mu-type opioid receptor [1]) is reported as 24%, the Activity [2] is reported as 0% and the Activity [3] is reported as 15%. For the same compound, the Activity [4] was 21%.
In the case of `COC(=O)[C@@H]1C[C@H](OC(=O)[C@@H](N)C(C)C)C(=O)[C@H]2[C@@]1(C)CC[C@H]1C(=O)O[C@H](c3ccoc3)C[C@]21C`, the Ratio Ki [5] is reported as > 238, the Activity (Mu-type opioid receptor [1]) is reported as 5% and the Emax [6] is reported as 118%. For the same compound, the Activity [2] was 91%, the Ki [7] was 0.042 µM and the Activity [3] was 48%. The EC50 [8] was 0.213 µM, the Emax [8] was 828% and the Ki [9] was > 10 µM. The Ki (Mu-type opioid receptor [10]) was > 10 µM, the Activity [4] was 103% and the Ratio Ki [11] was > 238.
With `COC(=O)[C@@H]1C[C@H](OC(=O)CCCNC(=O)OCC2c3ccccc3-c3ccccc32)C(=O)[C@H]2[C@@]1(C)CC[C@H]1C(=O)O[C@H](c3ccoc3)C[C@]21C` the Activity (Mu-type opioid receptor [1]) was 27%, the Activity [2] was 0% and the Activity [3] was 24%. For the same compound, the Activity [4] was 10%.
For `COC(=O)[C@@H]1C[C@H](OC(=O)[C@H](Cc2ccccc2)NC(=O)OCC2c3ccccc3-c3ccccc32)C(=O)[C@H]2[C@@]1(C)CC[C@H]1C(=O)O[C@H](c3ccoc3)C[C@]21C`, the Activity (Mu-type opioid receptor [1]) was 0.5%, the Activity [2] was 34% and the Activity [3] was 3%. The Activity [4] was 0%.
With `COC(=O)[C@@H]1C[C@H](OC(=O)[C@@H](NC(=O)OCC2c3ccccc3-c3ccccc32)C(C)C)C(=O)[C@H]2[C@@]1(C)CC[C@H]1C(=O)O[C@H](c3ccoc3)C[C@]21C` the Activity (Mu-type opioid receptor [1]) was 15%, the Activity [2] was 0% and the Activity [3] was 22%. For the same compound, the Activity [4] was 39%.
Work on `Oc1ccc2c3c1O[C@H]1c4[nH]c5ccccc5c4C[C@@]4(O)[C@@H](C2)N(CC2CC2)CC[C@]314` yielded an Activity [3] of 100%.
For `COC(=O)[C@@H]1C[C@H](OC(=O)[C@H](C)N)C(=O)[C@H]2[C@@]1(C)CC[C@H]1C(=O)O[C@H](c3ccoc3)C[C@]21C`, the Ratio Ki [5] was > 2.64, the Activity (Mu-type opioid receptor [1]) was -1.6% and the Activity [2] was 0%. The Ki [7] was 3.78 µM, the Activity [3] was 18% and the Ki [9] was > 10 µM. The Ki (Mu-type opioid receptor [10]) was > 10 µM, the Activity [4] was 82% and the Ratio Ki [11] was > 2.64.
`COC(=O)[C@@H]1C[C@H](OC(=O)[C@@H](NC(=O)OCC2c3ccccc3-c3ccccc32)[C@H](C)OC(C)(C)C)C(=O)[C@H]2[C@@]1(C)CC[C@H]1C(=O)O[C@H](c3ccoc3)C[C@]21C` showed an Activity (Mu-type opioid receptor [1]) of 18%, an Activity [2] of 12% and an Activity [3] of 8%. For the same compound, the Activity [4] was 28%.
Work on `COC(=O)[C@@H]1C[C@H](OC(=O)CCCN)C(=O)[C@H]2[C@@]1(C)CC[C@H]1C(=O)O[C@H](c3ccoc3)C[C@]21C` yielded an Activity (Mu-type opioid receptor [1]) of 1%, an Activity [2] of 0% and an Activity [3] of 28%. For the same compound, the Activity [4] was 48%.
In the case of `COC(=O)[C@@H]1C[C@H](OC(=O)[C@@H](N)[C@H](C)OC(C)(C)C)C(=O)[C@H]2[C@@]1(C)CC[C@H]1C(=O)O[C@H](c3ccoc3)C[C@]21C`, the Activity (Mu-type opioid receptor [1]) is reported as 2%, the Activity [2] is reported as 0% and the Activity [3] is reported as 11%. For the same compound, the Activity [4] was 6%.
Compound `COC(=O)[C@@H]1C[C@H](OC(=O)[C@@H](N)Cc2ccccc2)C(=O)[C@H]2[C@@]1(C)CC[C@H]1C(=O)O[C@H](c3ccoc3)C[C@]21C` has an Activity (Mu-type opioid receptor [1]) of -6%, an Activity [2] of 0% and an Activity [3] of 13%. For the same compound, the Activity [4] was 19%.
With `COC(=O)[C@@H]1C[C@H](OC(=O)CNC(=O)OCC2c3ccccc3-c3ccccc32)C(=O)[C@H]2[C@@]1(C)CC[C@H]1C(=O)O[C@H](c3ccoc3)C[C@]21C` the Activity (Mu-type opioid receptor [1]) was 20%, the Activity [2] was 10% and the Activity [3] was 16%. The Activity [4] was 4%.
